Source: patent publication US20030199457A1, “Prevention and treatment of thromboembolic disorders associated with arterial & venous thrombosis” (priority 2002, published 2003)

Key:
thrombosis = conditions: U.S. Pat. No. 6,103,705, cited from earlier work
[1] = test system: TF-induced clot formation/strength; experiment: Tissue factor-triggered thrombelastography (TEG), clot strength; assay type: cell-based; conditions: GPIIb/IIIa antagonists added to TEG cup with CaCl2 and TF; mimics platelet removal from whole blood
Procedure: Thrombelastography: Clot formation was monitored at 37° C. in an oscillating plastic cylindrical cuvette (“cup”) and a coaxially suspended stationary piston (“pin”) with a 1 mm clearance between the surfaces, using a computerized Thrombelastograph (CTEG Model 3000, Haemoscope, Skokie, Ill.) as described by Mousa et al., Athero Thromb Vasc Biol 2000. The cup oscillates 4°45′ ( 1/12 radian) in either direction every 4.5 seconds, with a 1 second mid-cycle stationary period; resulting in a frequency of 0.1 Hz and a maximal shear rate of 0.1 per second. The pin is suspended by a torsion wire that acts as a torque transducer. […] The torque experienced by the pin (relative to the cup's oscillation) is plotted as a function of time (Essel et al., J Cardiovascular Anesth., 7:410-415, 1993; Mousa et al., Arteriosclerosis Thromb Vasc Biol., 20:1162-1167, 2000). The amplitude on the TEG tracing is a measure of the rigidity of the clot; the peak strength or the shear elastic modulus attained by the clot, G, is a function of clot rigidity and can be calculated from the maximal amplitude (MA) of the TEG (Mousa et al., Arteriosclerosis Thromb Vasc Biol., 20:1162-1167, 2000).
Platelet Contribution to Clot Strength: To assess the effect of the TF modification on peak clot strength (G) was measured with and without the addition of TF in paired samples of WB and PRP. To document the contribution of activated platelets to the elastic modulus of fibrin clots, the effect of platelet number was measured by serially diluting PRP with PPP. The platelet count of each dilution was measured before performing TEG. Tissue factor-triggered TEG was performed with increasing concentrations added to the TEG cups. […] The Thrombelastograph maximum amplitude (MA) for platelets MA (PLT)) was calculated by subtracting the MA from a platelet-poor plasma (PPP) sample MA (PPP) determined in one TEG well from that of whole blood MA (WB) run simultaneously in the second TEG well.

platelet aggregation = conditions: combined with LMWH; 0.5 IU/ml thrombin; cited from earlier work

CCCCS(=O)(=O)N[C@@H](Cc1ccc(OCCCCC2CCNCC2)cc1)C(=O)O [BSPBPA]
anti-thrombotic effect on co-administration with the LMWH enoxaparin (thrombosis; intravenous, sub-effective or reduced levels): enhanced anti-thrombotic effect | anti-thrombotic effect on co-administration with standard heparin (thrombosis; same reduced level of the GPIIb/IIIa antagonist): This was not the case

CCCCOC(=O)N[C@@H](CNC(=O)C[C@H]1CC(c2ccc(C(=N)N)cc2)=NO1)C(=O)O [XV459]
maximal blockade (clot strength) [1]: 80%

CCCCOC(=O)N[C@@H](CNC(=O)C[C@H]1CC(c2ccc(C(=N)N)cc2)=NO1)C(=O)OC [roxifiban]
effect of sub-therapeutic concentrations on the dose-response relationship of LMWH (platelet aggregation): significant enhancement (synergy) of anti-thrombotic efficacy | maximal blockade (clot strength) [1]: 80%

B1: Abciximab: monoclonal antibody for GPIIb/IIIa (c7E3 Fab) (antibody, chains of the INN, looked up, V domains shown)
VH: EVQLQQSGTVLARPGASVKMSCEASGYTFTNYWMHWVKQRPGQGLEWIGAIYPGNSDTSYIQKFKGKAKLTAVTSTTSVYMELSSLTNEDSAVYYCTLYDGYYVFAYWGQGTLVTVSA
VL: EIVLTQSPVTLSVTPGDSVSLSCRASRDISNNLHWFQQTSHESPRLLIKYASQSMSGIPSRFSGSGSGTDFTLSINSVETEDFGMYFCQQTNSWPYTFGGGTKLEIK
modifications: Fab
effect of sub-therapeutic concentrations on the dose-response relationship of LMWH (platelet aggregation): significant enhancement (synergy) of anti-thrombotic efficacy | maximal blockade (clot strength) [1]: 80%
